According to PubChem BioAssay AID330 (DTP/NCI, 2004):
“And” between values parts separate entries of the source, which are not always exact repeats. Equal values may be shown once. Toxic doses and inconclusive results are not listed. The calls were made as follows: active = survival T/C of 150% or more; inactive = T/C below 125% in these data.

Test system: P388 leukemia ip, CD2F1 mice, survival T/C
Assay: NCI In Vivo Anticancer Drug Screen. Data for tumor model P388 Leukemia (intraperitoneal) in CD2F1 (CDF1) mice
Conditions: endpoint: median survival time, higher = longer survival
Summary of the method: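 Mice carrying the transplanted tumor received test compound or vehicle. Survival was recorded in each group, and the value is the treated-group measurement divided by that of the vehicle-treated control group.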

[1] = dose: 12.5 mg/kg/injection, schedule: Q01DX009 (ip), vehicle: saline with Tween-80
[2] = dose: 25.0 mg/kg/injection, schedule: Q01DX009 (ip), vehicle: saline with Tween-80
[3] = dose: 50.0 mg/kg/injection, schedule: Q01DX009 (ip), vehicle: saline with Tween-80
[4] = dose: 50.0 mg/kg/injection, schedule: Q01DX005 (ip), vehicle: saline with Tween-80
[5] = dose: 100.0 mg/kg/injection, schedule: Q01DX005 (ip), vehicle: saline with Tween-80
[6] = dose: 200.0 mg/kg/injection, schedule: Q01DX005 (ip), vehicle: saline with Tween-80
[7] = dose: 50.0 mg/kg/injection, schedule: Q01DX005 (ip), vehicle: Klucel (hydroxypropylcellulose) (HPC)
[8] = dose: 12.5 mg/kg/injection, schedule: Q01DX005 (ip), vehicle: Klucel (hydroxypropylcellulose) (HPC)
[9] = dose: 50.0 mg/kg/injection, schedule: Q01DX009 (ip), vehicle: saline
[10] = dose: 100.0 mg/kg/injection, schedule: Q01DX009 (ip), vehicle: saline
[11] = dose: 200.0 mg/kg/injection, schedule: Q01DX009 (ip), vehicle: saline
[12] = dose: 25.0 mg/kg/injection, schedule: Q01DX005 (ip), vehicle: Klucel (hydroxypropylcellulose) (HPC)
[13] = dose: 25.0 mg/kg/injection, schedule: Q01DX009 (ip), vehicle: saline

Measured: T/C

CC(C)(C)c1ccc(OP(=S)(N/N=C/c2ccccc2O)Oc2ccc(C(C)(C)C)cc2)cc1
inactive: [1] 94 % of control | [2] 88 % of control | [3] 93 % of control and 95 % of control | dose: 100.0 mg/kg/injection, schedule: Q01DX009 (ip), vehicle: saline with Tween-80 95 % of control | dose: 200.0 mg/kg/injection, schedule: Q01DX009 (ip), vehicle: saline with Tween-80 95 % of control

CCCCCCCCCCN(CCCCCCCCCC)C(C)C(=O)c1ccc2cc(Br)c3ccccc3c2c1 (configuration not stated)
inactive: [4] 99 % of control | [5] 89 % of control | [6] 104 % of control

CC(=O)CC(=O)c1ccccc1.CC(=O)CC(=O)c1ccccc1.[Ni]
inactive: dose: 3.0 mg/kg/injection, schedule: Q01DX009 (ip), vehicle: saline with Tween-80 106 % of control | dose: 6.0 mg/kg/injection, schedule: Q01DX009 (ip), vehicle: saline with Tween-80 98 % of control | dose: 12.0 mg/kg/injection, schedule: Q01DX009 (ip), vehicle: saline with Tween-80 99 % of control | [1] 91 % of control | dose: 24.0 mg/kg/injection, schedule: Q01DX009 (ip), vehicle: saline with Tween-80 99 % of control

O=[N+]([O-])/C=C/c1cc2c(cc1Cl)OCO2
inactive: [7] 107 % of control | dose: 100.0 mg/kg/injection, schedule: Q01DX005 (ip), vehicle: Klucel (hydroxypropylcellulose) (HPC) 111 % of control | dose: 200.0 mg/kg/injection, schedule: Q01DX005 (ip), vehicle: Klucel (hydroxypropylcellulose) (HPC) 95 % of control

COc1ccc2nc(Cl)c(CBr)c(CBr)c2c1
inactive: [8] 98 % of control | [7] 117 % of control

N#CCCOCC(COCCC#N)OCCC#N
inactive: [9] 105 % of control | [10] 92 % of control | [11] 102 % of control

COc1ccc2c(c1CCl)C(=O)OC2
inactive: [1] 96 % of control | [2] 111 % of control | [3] 101 % of control and 89 % of control

CC1(C)CC(N2CCOCC2)=CC(=NCc2ccccc2)N1
inactive: [8] 107 % of control | [12] 99 % of control | [7] 100 % of control and 101 % of control

CC1=C(C)CP(=O)(c2ccccc2)C1
inactive: [13] 96 % of control | [9] 93 % of control | [10] 95 % of control | [11] 95 % of control

NC(=O)CCCC(C(N)=O)c1ccccc1 (configuration not stated)
inactive: dose: 100.0 mg/kg/injection, schedule: Q01DX001 (ip), vehicle: Klucel (hydroxypropylcellulose) (HPC) 100 % of control | dose: 200.0 mg/kg/injection, schedule: Q01DX001 (ip), vehicle: Klucel (hydroxypropylcellulose) (HPC) 105 % of control | dose: 400.0 mg/kg/injection, schedule: Q01DX001 (ip), vehicle: Klucel (hydroxypropylcellulose) (HPC) 99 % of control

C(=C\c1ccc2cc(C3=NCCN3)[nH]c2c1)/c1ccc(Oc2ccc(C3=NCCN3)cc2)cc1 (tested in a mixture with another compound)
inactive: dose: 6.25 mg/kg/injection, schedule: Q01DX005 (ip), vehicle: Klucel (hydroxypropylcellulose) (HPC) 111 % of control | [8] 97 % of control | [12] 100 % of control

O=P1(N(CCCl)CCCl)Nc2cccc3cccc(c23)N1
inactive: dose: 6.25 mg/kg/injection, schedule: Q01DX009 (ip), vehicle: Klucel (hydroxypropylcellulose) (HPC) 110 % of control and 111 % of control | dose: 12.5 mg/kg/injection, schedule: Q01DX009 (ip), vehicle: Klucel (hydroxypropylcellulose) (HPC) 103 % of control and 114 % of control | dose: 25.0 mg/kg/injection, schedule: Q01DX009 (ip), vehicle: Klucel (hydroxypropylcellulose) (HPC) 102 % of control and 119 % of control | dose: 50.0 mg/kg/injection, schedule: Q01DX009 (ip), vehicle: Klucel (hydroxypropylcellulose) (HPC) 120 % of control

CCOc1ccc(N2CC(=O)N3CCCC(C)N3C(=O)C2)cc1 (configuration not stated)
inactive: [4] 101 % of control | [5] 101 % of control | [6] 103 % of control

C1=Nc2ccccc2N=Cc2ccccc2NCCNc2ccccc21
inactive: dose: 6.25 mg/kg/injection, schedule: Q01DX009 (ip), vehicle: saline 98 % of control | dose: 12.5 mg/kg/injection, schedule: Q01DX009 (ip), vehicle: saline 101 % of control | [13] 92 % of control
